Laboratory results as given in ChEMBL document CHEMBL3132769, “Fragment growing to retain or alter the selectivity of anchored kinase hinge-binding fragments” (Medchemcomm, 2014).

Columns and labels:
[1] = molecular target: Proto-oncogene tyrosine-protein kinase Src (Homo sapiens) (UniProt P12931); test: Inhibition of human full length SRC expressed in baculovirus assessed as substrate phosphorylation using fluorescence-labelled peptides as substrate at 0.2 uM after 90 mins by microfluidic peptide phosphorylation assay
[2] = test system: Fibroblast growth factor receptor 2 (Homo sapiens), P21802 [N549H]; test: Inhibition of human FGFR2 N549H mutant catalytic domain expressed in baculovirus assessed as substrate phosphorylation using fluorescence-labelled peptides as substrate at 0.2 uM after 90 mins by microfluidic peptide phosphorylation assay
[3] = molecular target: T1, MAP kinase-activated protein kinase 5 (Homo sapiens) (UniProt Q8IW41); test: Inhibition of human full length PRAK expressed in baculovirus assessed as substrate phosphorylation using fluorescence-labelled peptides as substrate at 8 uM after 90 mins by microfluidic peptide phosphorylation assay
T1 sequence (whole entry): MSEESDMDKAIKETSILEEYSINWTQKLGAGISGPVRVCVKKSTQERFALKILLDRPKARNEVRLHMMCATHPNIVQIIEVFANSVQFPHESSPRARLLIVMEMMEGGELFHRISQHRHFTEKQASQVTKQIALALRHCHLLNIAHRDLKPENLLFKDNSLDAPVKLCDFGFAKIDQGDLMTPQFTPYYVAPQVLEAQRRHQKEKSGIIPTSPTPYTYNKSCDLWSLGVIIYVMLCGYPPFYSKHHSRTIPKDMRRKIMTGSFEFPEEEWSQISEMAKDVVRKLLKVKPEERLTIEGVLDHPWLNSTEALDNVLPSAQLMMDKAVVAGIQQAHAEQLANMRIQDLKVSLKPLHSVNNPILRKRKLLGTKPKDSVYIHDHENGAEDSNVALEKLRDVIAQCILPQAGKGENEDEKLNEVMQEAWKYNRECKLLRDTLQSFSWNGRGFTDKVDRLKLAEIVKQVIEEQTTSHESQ

[4] = molecular target: Aurora kinase B (Homo sapiens) (UniProt Q96GD4); test: Inhibition of human full length AurB expressed in baculovirus assessed as substrate phosphorylation using fluorescence-labelled peptides as substrate at 0.06 uM after 90 mins by microfluidic peptide phosphorylation assay
[5] = molecular target: Protein kinase C theta type (Homo sapiens) (UniProt Q04759); test: Inhibition of human truncated PKC theta expressed in baculovirus assessed as substrate phosphorylation using fluorescence-labelled peptides as substrate at 0.1 uM after 90 mins by microfluidic peptide phosphorylation assay
[6] = molecular target: Tyrosine-protein kinase HCK (Homo sapiens) (UniProt P08631); test: Inhibition of human HCK catalytic domain expressed in baculovirus assessed as substrate phosphorylation using fluorescence-labelled peptides as substrate at 0.1 uM after 90 mins by microfluidic peptide phosphorylation assay
[7] = molecular target: Cyclin-dependent kinase 2 (Homo sapiens) (UniProt P24941); test: Inhibition of human full length CDK2 expressed in baculovirus assessed as substrate phosphorylation using fluorescence-labelled peptides as substrate at 0.1 uM after 90 mins by microfluidic peptide phosphorylation assay
[8] = molecular target: T2, Calcium/calmodulin-dependent protein kinase type IV (Homo sapiens) (UniProt Q16566); test: Inhibition of human full length CAMK4 expressed in baculovirus assessed as substrate phosphorylation using fluorescence-labelled peptides as substrate at 0.1 uM after 90 mins by microfluidic peptide phosphorylation assay
T2 sequence (whole entry): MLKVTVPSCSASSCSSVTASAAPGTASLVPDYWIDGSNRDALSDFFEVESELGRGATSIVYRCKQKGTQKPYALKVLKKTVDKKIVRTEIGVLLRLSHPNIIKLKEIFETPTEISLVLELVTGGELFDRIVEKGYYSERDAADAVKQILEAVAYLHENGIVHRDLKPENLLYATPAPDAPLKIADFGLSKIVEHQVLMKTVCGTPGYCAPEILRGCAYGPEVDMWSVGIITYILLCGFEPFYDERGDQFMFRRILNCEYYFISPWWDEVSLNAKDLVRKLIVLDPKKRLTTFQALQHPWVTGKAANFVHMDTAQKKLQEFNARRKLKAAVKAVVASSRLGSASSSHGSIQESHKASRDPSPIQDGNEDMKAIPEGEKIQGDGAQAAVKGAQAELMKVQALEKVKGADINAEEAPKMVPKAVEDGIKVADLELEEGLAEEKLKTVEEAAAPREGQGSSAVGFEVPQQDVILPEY

Homo sapiens = species: Homo sapiens; test: Inhibition of human P70S6K catalytic domain expressed in baculovirus assessed as substrate phosphorylation using fluorescence-labelled peptides as substrate at 420 uM after 90 mins by microfluidic peptide phosphorylation assay
[9] = molecular target: Fibroblast growth factor receptor 1 (Homo sapiens) (UniProt P11362); test: Inhibition of human FGFR1 catalytic domain expressed in baculovirus assessed as substrate phosphorylation using fluorescence-labelled peptides as substrate at 420 uM after 90 mins by microfluidic peptide phosphorylation assay
[10] = molecular target: Protein kinase C alpha type (Homo sapiens) (UniProt P17252); test: Inhibition of human truncated PKC alpha expressed in baculovirus assessed as substrate phosphorylation using fluorescence-labelled peptides as substrate at 420 uM after 90 mins by microfluidic peptide phosphorylation assay
[11] = molecular target: T3, Aurora kinase A (Homo sapiens) (UniProt O14965); test: Inhibition of human full length AurA expressed in baculovirus assessed as substrate phosphorylation using fluorescence-labelled peptides as substrate at 420 uM after 90 mins by microfluidic peptide phosphorylation assay
T3 sequence (whole entry): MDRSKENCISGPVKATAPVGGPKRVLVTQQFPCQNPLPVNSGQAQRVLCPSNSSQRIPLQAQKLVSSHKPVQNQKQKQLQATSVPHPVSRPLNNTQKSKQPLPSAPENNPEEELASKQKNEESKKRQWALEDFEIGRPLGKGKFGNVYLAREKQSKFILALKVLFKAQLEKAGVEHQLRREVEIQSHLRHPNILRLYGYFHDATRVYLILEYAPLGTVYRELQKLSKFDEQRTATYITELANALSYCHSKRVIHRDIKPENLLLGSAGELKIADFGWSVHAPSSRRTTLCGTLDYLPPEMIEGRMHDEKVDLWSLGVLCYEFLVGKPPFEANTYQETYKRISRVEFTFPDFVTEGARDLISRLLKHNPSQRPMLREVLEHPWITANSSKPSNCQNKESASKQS

[12] = molecular target: Serine/threonine-protein kinase pim-1 (Homo sapiens) (UniProt P11309); test: Inhibition of human full length PIM1 expressed in baculovirus assessed as substrate phosphorylation using fluorescence-labelled peptides as substrate at 9 uM after 90 mins by microfluidic peptide phosphorylation assay
[13] = molecular target: Aurora kinase B (Homo sapiens) (UniProt Q96GD4); test: Inhibition of human full length AurB expressed in baculovirus assessed as substrate phosphorylation using fluorescence-labelled peptides as substrate at 9 uM after 90 mins by microfluidic peptide phosphorylation assay
[14] = molecular target: Calcium/calmodulin-dependent protein kinase type II subunit gamma (Homo sapiens) (UniProt Q13555); test: Inhibition of human CAMK2 gamma catalytic domain expressed in baculovirus assessed as substrate phosphorylation using fluorescence-labelled peptides as substrate at 70 uM after 90 mins by microfluidic peptide phosphorylation assay
[15] = molecular target: RAF proto-oncogene serine/threonine-protein kinase (Homo sapiens) (UniProt P04049); test: Inhibition of human truncated c-Raf expressed in baculovirus assessed as substrate phosphorylation using fluorescence-labelled peptides as substrate at 70 uM after 90 mins by microfluidic peptide phosphorylation assay
Sequence of RAF proto-oncogene serine/threonine-protein kinase (Homo sapiens) (P04049 whole entry, the tested form may be a part): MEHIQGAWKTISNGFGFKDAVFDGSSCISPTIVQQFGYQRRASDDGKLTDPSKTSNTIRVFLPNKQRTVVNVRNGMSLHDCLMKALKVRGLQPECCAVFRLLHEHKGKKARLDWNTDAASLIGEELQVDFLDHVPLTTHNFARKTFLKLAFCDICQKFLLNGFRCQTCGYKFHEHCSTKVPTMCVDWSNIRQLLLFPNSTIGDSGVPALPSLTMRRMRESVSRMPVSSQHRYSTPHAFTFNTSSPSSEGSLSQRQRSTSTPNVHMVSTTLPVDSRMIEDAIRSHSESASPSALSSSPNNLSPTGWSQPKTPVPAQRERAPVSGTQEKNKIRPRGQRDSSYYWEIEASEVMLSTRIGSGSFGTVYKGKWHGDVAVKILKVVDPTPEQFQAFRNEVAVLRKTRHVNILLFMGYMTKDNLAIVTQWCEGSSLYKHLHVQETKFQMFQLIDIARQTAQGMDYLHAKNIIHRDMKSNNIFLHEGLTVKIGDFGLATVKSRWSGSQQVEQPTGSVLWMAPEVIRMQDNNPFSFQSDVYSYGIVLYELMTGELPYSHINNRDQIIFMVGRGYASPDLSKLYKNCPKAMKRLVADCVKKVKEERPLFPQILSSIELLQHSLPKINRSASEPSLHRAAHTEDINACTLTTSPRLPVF

Sequence of Aurora kinase B (Homo sapiens) (Q96GD4 whole entry, the tested form may be a part): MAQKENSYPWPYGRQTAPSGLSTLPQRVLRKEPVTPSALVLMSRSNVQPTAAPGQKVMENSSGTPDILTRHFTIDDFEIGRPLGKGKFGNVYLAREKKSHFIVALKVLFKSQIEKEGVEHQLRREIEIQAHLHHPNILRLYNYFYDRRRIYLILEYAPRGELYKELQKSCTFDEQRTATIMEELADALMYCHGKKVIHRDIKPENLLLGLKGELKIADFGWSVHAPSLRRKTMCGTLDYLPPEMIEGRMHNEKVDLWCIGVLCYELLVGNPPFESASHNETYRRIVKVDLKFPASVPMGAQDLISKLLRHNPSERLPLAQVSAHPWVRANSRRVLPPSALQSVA
Sequence of Calcium/calmodulin-dependent protein kinase type II subunit gamma (Homo sapiens) (Q13555 whole entry, the tested form may be a part): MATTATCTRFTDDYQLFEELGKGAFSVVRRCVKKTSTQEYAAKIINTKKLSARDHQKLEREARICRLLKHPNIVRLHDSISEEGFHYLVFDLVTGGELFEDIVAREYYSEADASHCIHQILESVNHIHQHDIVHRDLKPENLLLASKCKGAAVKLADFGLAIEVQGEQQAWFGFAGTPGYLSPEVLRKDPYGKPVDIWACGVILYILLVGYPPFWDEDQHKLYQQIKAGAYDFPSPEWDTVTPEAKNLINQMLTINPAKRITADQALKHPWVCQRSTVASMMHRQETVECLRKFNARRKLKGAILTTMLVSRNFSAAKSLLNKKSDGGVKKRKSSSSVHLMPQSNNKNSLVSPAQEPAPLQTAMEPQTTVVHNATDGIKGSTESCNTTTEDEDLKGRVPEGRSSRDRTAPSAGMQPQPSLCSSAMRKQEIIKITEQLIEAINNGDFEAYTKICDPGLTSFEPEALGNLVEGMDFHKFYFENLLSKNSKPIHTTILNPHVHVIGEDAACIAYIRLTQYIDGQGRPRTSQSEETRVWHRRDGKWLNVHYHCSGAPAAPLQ
Sequence of Fibroblast growth factor receptor 1 (Homo sapiens) (P11362 22-822 limits assumed): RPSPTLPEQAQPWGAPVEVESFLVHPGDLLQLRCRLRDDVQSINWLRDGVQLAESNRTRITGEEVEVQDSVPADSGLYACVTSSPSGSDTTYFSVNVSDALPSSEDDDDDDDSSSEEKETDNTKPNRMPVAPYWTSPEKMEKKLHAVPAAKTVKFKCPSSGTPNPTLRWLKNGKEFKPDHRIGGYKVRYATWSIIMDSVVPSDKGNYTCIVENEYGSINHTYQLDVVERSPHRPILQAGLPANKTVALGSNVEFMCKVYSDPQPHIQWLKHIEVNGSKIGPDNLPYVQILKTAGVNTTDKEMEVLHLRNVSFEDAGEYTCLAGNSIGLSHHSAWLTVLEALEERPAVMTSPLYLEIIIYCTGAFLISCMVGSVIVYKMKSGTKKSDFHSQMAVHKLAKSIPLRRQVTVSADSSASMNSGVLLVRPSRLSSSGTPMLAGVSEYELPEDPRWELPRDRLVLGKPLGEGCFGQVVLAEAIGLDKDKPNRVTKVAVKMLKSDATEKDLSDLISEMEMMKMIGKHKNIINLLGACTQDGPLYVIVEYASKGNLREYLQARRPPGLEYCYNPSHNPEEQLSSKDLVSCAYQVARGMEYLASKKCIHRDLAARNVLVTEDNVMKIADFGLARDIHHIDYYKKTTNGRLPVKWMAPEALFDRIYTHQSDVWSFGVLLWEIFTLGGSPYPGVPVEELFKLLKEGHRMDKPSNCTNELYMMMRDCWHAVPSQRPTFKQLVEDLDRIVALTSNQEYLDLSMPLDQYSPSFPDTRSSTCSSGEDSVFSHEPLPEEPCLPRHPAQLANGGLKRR
Sequence of Protein kinase C theta type (Homo sapiens) (Q04759 whole entry, looked up, the tested form may be a part): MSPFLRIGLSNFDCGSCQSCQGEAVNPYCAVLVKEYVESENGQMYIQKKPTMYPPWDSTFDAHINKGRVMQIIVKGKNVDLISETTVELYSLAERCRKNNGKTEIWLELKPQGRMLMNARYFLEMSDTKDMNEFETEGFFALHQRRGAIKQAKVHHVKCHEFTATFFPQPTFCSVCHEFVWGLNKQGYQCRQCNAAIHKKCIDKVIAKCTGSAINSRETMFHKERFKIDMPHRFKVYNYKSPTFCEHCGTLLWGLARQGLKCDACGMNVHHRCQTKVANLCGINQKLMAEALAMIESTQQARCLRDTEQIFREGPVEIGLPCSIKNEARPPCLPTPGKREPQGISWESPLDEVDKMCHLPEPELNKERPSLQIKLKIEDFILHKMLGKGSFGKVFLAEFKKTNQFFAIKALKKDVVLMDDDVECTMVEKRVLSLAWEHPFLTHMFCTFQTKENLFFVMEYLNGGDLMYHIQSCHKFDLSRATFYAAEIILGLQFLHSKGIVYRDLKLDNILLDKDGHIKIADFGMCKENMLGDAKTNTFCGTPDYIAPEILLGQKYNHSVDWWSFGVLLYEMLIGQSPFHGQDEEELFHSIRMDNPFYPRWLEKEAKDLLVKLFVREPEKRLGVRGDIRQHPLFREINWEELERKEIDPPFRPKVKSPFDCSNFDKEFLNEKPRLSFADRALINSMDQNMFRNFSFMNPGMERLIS
Sequence of Tyrosine-protein kinase HCK (Homo sapiens) (P08631 2-526 limits assumed): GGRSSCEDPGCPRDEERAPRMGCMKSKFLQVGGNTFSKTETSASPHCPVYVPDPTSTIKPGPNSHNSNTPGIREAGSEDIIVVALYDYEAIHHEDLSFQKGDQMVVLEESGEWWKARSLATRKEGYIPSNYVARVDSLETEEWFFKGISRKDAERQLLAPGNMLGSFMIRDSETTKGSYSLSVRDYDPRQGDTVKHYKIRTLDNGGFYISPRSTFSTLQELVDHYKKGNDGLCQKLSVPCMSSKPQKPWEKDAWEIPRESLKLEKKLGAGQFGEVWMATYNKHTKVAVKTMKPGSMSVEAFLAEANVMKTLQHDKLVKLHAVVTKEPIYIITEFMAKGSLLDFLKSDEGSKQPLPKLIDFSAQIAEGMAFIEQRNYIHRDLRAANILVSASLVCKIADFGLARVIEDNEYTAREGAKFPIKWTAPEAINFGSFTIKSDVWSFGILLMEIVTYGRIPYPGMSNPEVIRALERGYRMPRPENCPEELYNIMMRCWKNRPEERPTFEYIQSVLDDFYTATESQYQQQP
Sequence of Serine/threonine-protein kinase pim-1 (Homo sapiens) (P11309 whole entry, looked up): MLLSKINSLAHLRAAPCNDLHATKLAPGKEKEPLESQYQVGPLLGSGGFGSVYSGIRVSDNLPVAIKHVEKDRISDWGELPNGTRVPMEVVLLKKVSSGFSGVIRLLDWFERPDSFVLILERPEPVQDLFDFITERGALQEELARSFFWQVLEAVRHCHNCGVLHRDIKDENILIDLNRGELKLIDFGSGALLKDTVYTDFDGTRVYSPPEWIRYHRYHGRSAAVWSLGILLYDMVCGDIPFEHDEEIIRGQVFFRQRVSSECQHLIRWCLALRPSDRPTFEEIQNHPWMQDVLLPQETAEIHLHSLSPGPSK
Sequence of Fibroblast growth factor receptor 2 (Homo sapiens), P21802 [N549H] (P21802 whole entry N549H, the tested form may be a part): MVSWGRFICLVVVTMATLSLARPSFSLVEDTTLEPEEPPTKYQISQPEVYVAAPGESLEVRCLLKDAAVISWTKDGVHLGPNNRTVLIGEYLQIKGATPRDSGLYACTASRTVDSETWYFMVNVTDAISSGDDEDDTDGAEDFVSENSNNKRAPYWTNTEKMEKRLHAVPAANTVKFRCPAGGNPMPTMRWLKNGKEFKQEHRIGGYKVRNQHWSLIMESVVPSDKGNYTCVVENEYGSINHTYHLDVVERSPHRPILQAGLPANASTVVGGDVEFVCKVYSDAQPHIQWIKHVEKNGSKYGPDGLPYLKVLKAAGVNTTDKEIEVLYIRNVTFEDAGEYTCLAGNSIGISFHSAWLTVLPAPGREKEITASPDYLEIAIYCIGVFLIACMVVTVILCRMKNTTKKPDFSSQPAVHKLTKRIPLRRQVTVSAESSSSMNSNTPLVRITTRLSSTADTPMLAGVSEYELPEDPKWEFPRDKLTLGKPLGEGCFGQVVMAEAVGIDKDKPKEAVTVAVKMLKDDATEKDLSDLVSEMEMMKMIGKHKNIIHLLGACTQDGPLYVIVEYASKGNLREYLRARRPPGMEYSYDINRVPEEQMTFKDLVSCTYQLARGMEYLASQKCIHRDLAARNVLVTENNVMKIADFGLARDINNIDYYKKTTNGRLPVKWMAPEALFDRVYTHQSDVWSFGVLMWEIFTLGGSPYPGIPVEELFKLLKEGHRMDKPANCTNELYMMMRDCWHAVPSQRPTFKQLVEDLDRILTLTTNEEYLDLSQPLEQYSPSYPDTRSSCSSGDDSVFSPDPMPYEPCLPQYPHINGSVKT

Clc1ccc(C2(c3ccc(-c4ncnc5[nH]cnc45)cc3)CCNCC2)cc1
inhibition [1]: 24.5%
inhibition [2]: 7%

NCC1CCN(c2ncnc3[nH]ccc23)CC1
inhibition [3]: 51.5%

NC1(Cc2ccc(Cl)cc2)CCN(c2ncnc3[nH]ccc23)CC1
inhibition [4]: 0%

C[C@H](CN(C)C)Oc1nc(Nc2cc3cccc(Cl)c3cn2)cnc1C#N
inhibition [5]: 5%
inhibition [6]: 4%
inhibition [7]: 1.5%
inhibition [8]: 3.5%

c1nc(N2CCOCC2)c2nc[nH]c2n1
inhibition (Homo sapiens): 84.5%
inhibition [9]: 97%
inhibition [10]: 64.5%
inhibition [11]: 96%

NCC1CN(c2ncnc3[nH]c4cnccc4c23)CCO1 (stereo unspecified)
inhibition [12]: 36.5%
inhibition [13]: 31%

CNCc1ccc(-c2ncnc3[nH]cnc23)cc1
inhibition [14]: 16%
inhibition [15]: 39.5%
